As for `CC(C)OC(=O)OCOC(=O)[C@H]1[C@@H]2CC[C@@](N)(C(=O)OCOC(=O)OC(C)C)[C@@H]21.Cl`, the melting point stood at 52 °C.

For the molecule `Cl.N[C@@]1(C(=O)O)CC[C@H]2[C@H](C(=O)OCOC(=O)c3ccccc3)[C@H]21`, the melting point was 230 °C (dec.).

`Cl.N[C@@]1(C(=O)OCOC(=O)c2ccc3ccccc3c2)CC[C@H]2[C@H](C(=O)O)[C@H]21` registered a melting point of 184 to 185 °C.

`Cl.N[C@@]1(C(=O)OCOC(=O)c2cccc3ccccc23)CC[C@H]2[C@H](C(=O)O)[C@H]21` [Example 17, (1S,2S,5R,6S)-2-amino-bicyclo[3.1.0]hexane-2,6-dicarboxylic acid 2-(naphthalene-1′-carbonyloxymethyl) ester hydrochloride] displayed a melting point of 212 to 213 °C.

The molecule `CC(C)OC(=O)OCOC(=O)[C@H]1[C@@H]2CC[C@@](N)(C(=O)O)[C@@H]21` [Example 23, (1S,2S,5R,6S)-2-Amino-bicyclo[3.1.0]hexane-2,6-dicarboxylic acid 6-isopropyloxycarbonyloxymethyl ester] yielded a melting point of 196 to 197 °C.

In the case of `CC(C)(C)C(=O)OCOC(=O)[C@H]1[C@@H]2CC[C@@](N)(C(=O)O)[C@@H]21.Cl`, the melting point is 258 °C (dec.).

In turn, `Cl.N[C@@]1(C(=O)OCOC(=O)c2ccc3ccccc3c2)CC[C@H]2[C@H](C(=O)OCOC(=O)c3ccc4ccccc4c3)[C@H]21` showed a melting point of 125 to 127 °C.

In turn, `CCCC(=O)OCOC(=O)[C@H]1[C@@H]2CC[C@@](N)(C(=O)O)[C@@H]21` [Example 24, (1S,2S,5R,6S)-2-amino-bicyclo[3.1.0]hexane-2,6-dicarboxylic acid 6-n-butyryloxymethyl ester] returned a melting point of 199 to 200 °C.

`COC(=O)OCOC(=O)[C@H]1[C@@H]2CC[C@@](N)(C(=O)O)[C@@H]21` [Example 25, (1S,2S,5R,6S)-2-amino-bicyclo[3.1.0]hexane-2,6-dicarboxylic acid 6-methoxycarbonyloxymethyl ester] came in with a melting point of 214 to 215 °C.

Molecule `CC(C)OC(=O)OCOC(=O)[C@]1(N)CC[C@H]2[C@H](C(=O)O)[C@H]21.Cl` [Example 14, (1S,2S,5R,6S)-2-Amino-bicyclo[3.1.0]hexane-2,6-dicarboxylic acid 2-isopropyloxycarbonyloxymethyl ester hydrochloride] gave a melting point of 59 to 60 °C.

Regarding `Cc1oc(=O)oc1COC(=O)[C@H]1[C@@H]2CC[C@@](N)(C(=O)O)[C@@H]21` [Example 26, (1S,2S,5R,6S)-2-amino-bicyclo[3.1.0]hexane-2,6-dicarboxylic acid 6-(5′-methyl-2′-oxo-[1′,3′]dioxolen-4′-yl)methyl ester], the melting point was 180 °C (dec.).

Turning to `CC(C)C(=O)OCOC(=O)[C@H]1[C@@H]2CC[C@@](N)(C(=O)OCOC(=O)C(C)C)[C@@H]21.Cl`, the melting point lay within 224 to 226 °C.

`Cl.N[C@@]1(C(=O)OCOC(=O)c2cccc3ccccc23)CC[C@H]2[C@H](C(=O)OCOC(=O)c3cccc4ccccc34)[C@H]21` displayed a melting point of 92 to 94 °C.

Consider `Cl.N[C@@]1(C(=O)OCOC(=O)c2ccccc2)CC[C@H]2[C@H](C(=O)OCOC(=O)c3ccccc3)[C@H]21` [Example 43, (1S,2S,5R,6S)-2-Amino-bicyclo[3.1.0]hexane-2,6-dicarboxylic acid, 2,6-dibenzoyloxymethyl ester hydrochloride], for which the melting point is 73 °C.

The molecule `CC(C)(C)C(=O)OCOC(=O)[C@H]1[C@@H]2CC[C@@](N)(C(=O)O)[C@@H]21` [Example 21, (1S,2S,5R,6S)-2-Amino-bicyclo[3.1.0]hexane-2,6-dicarboxylic acid 6-tert-butylcarbonyloxymethyl ester] showed a melting point of 205 to 206 °C.

The values are drawn from US20040248963A1, “Prodrugs of excitatory amino acids” (priority 2001, published 2004).
